Test results: publication PMC5321434, “Dihydrobenz[e][1,4]oxazepin-2(3H)-ones, a new anthelmintic chemotype immobilising whipworm and reducing infectivity in vivo” (PLoS Neglected Tropical Diseases, 2017)
Like-named read-outs stand apart in the source and are kept apart here.

Tests used:
adult T. muris = assay: Ex vivo adult T. muris automated motility assay (primary/secondary screen at 100 μM and dose-response); parameters: species or system Trichuris muris; details: for COMBINED_SCREEN_ACTIVITY: combined primary and secondary screen minus log fold change in movement, adult T. muris; for COMBINED_SCREEN_ACTIVITY / PRIMARY_SCREEN_MINUS_LOG_FOLD_CHANGE_MOVEMENT / SECONDARY_SCREEN_MINUS_LOG_FOLD_CHANGE_MOVEMENT: 100 μM; for PRIMARY_SCREEN_MINUS_LOG_FOLD_CHANGE_MOVEMENT: primary screen; for PRIMARY_SCREEN_MINUS_LOG_FOLD_CHANGE_MOVEMENT / SECONDARY_SCREEN_MINUS_LOG_FOLD_CHANGE_MOVEMENT: adult T. muris motility; for SECONDARY_SCREEN_MINUS_LOG_FOLD_CHANGE_MOVEMENT: secondary screen
Summary of the method: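 Motility scored after 24 h (37 °C, 5% CO2) by automated imaging of pixel intensity variance, one worm per well, four weekly biological replicates. Worms came from SCID mice infected orally with 200 eggs, harvested day 35; screening at 100 μM final in RPMI-1640/antibiotics, 1% DMSO; curves fitted with four-parameter log-logistic model.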

[1] = tested on: CMT-93 murine rectal epithelial cells; assay: WST-8 cytotoxicity assay; assay type: cell-based, mouse; details: CMT-93 cells, 72 hours, maximum tested concentration 100μM, n = 8, 95% confidence interval in parentheses
Experimental: (§1) CMT-93 murine rectal epithelial cells were maintained in Dulbecco's Modified Eagle's Medium (DMEM) with 10% fetal calf serum (FCS) and 1% penicillin-streptomycin solution (10,000U/ml). Cells were plated in 96-well tissue culture plates at a density of 2x10^2 cells per well in a volume of 100μl, and cultured for 96 hours (37°C, 5% CO2) until reaching 30% confluence. The growth medium was removed and replaced with treatment media (DMEM, 1% FCS, 1% penicillin-streptomycin solution, 100μl assay volume) supplemented with vehicle alone (DMSO), test compounds or chlorpromazine, a positive control for cytotoxicity (final concentrations from 0 to 100μM). Maximum vehicle concentration for all compounds was 0.5% DMSO. Cells were cultured with the test compounds for 72 hours before cytotoxicity measurement. The WST-8 assay was performed using the Cell Counting Kit– 8 (Sigma Aldrich # 96992). 10μl of the CCK-8 solution was added to each well, plates were incubated for a further 2 hours, before absorbance was measured at 450nm using a microplate reader. This assay measures the ability of metabolically active cells to reduce a water-soluble formazan dye. Results were analysed using GraphPad Prism and fitted using a log-logistic model.

[2] = tested on: CMT-93 murine rectal epithelial cells; assay: Neutral red cytotoxicity assay; assay type: cell-based, mouse; details: CMT-93 cells, 72 hours, maximum tested concentration 100μM, n = 8, 95% confidence interval in parentheses
Experimental: (§2) CMT-93 murine rectal epithelial cells were maintained in Dulbecco's Modified Eagle's Medium (DMEM) with 10% fetal calf serum (FCS) and 1% penicillin-streptomycin solution (10,000U/ml). Cells were plated in 96-well tissue culture plates at a density of 2x10^2 cells per well in a volume of 100μl, and cultured for 96 hours (37°C, 5% CO2) until reaching 30% confluence. The growth medium was removed and replaced with treatment media (DMEM, 1% FCS, 1% penicillin-streptomycin solution, 100μl assay volume) supplemented with vehicle alone (DMSO), test compounds or chlorpromazine, a positive control for cytotoxicity (final concentrations from 0 to 100μM). Maximum vehicle concentration for all compounds was 0.5% DMSO. Cells were cultured with the test compounds for 72 hours before cytotoxicity measurement. Following the WST-8 assay, the medium was removed, cells were washed with 100μl PBS and then 100μl of neutral red medium (DMEM, 1% FBS and 33μg/ml neutral red dye (Sigma Aldrich #N2889) were added to each well, followed by incubation for a further 2 hours. The neutral red medium was removed, cells washed with 100μl of PBS and 100μl of destain solution (50% ethanol, 49% distilled water and 1% glacial acetic acid) were added. Each assay plate was shaken rapidly for 10 minutes before absorbance was measured at 540nm using a microplate reader. This assay measures the ability of living cells to actively take up the neutral red dye. Results were analysed using GraphPad Prism and fitted using a log-logistic model.

[3] = tested on: embryonated T. muris eggs; assay: In vivo establishment of infection by compound-treated embryonated eggs; parameters: species or system Trichuris muris; details: for Reduction of infectivity in vivo of treated embryonated eggs: washed, 30 eggs by oral gavage to mice, worms counted day 15, versus DMSO control; for ResynActivityTmurisEggInfectivity: resynthesised compound, activity on T. muris egg infectivity (Yes/No)
Experimental: 100 infective embryonated eggs were incubated with water, water plus DMSO vehicle, or test compounds at a final concentration of 100μM for 14 days at room temperature. Eggs were then washed, re-suspended in water and 30 eggs given to a mouse via oral gavage. At day 15 post-infection, mice were culled and the number of worms present in the caecae and colon was counted. One data point was excluded: a water control individual mouse where there were technical difficulties with the oral gavage leading to the mouse regurgitating some of the T. muris eggs. It was ear marked at day of gavage and removed from the analysis.
We collected data using the same experimental design on different occasions, these are referred to as batches. Data were obtained from three batches (DMSO and water controls, batches [A,B,C]) or two batches (OX02983 [A,C], OX03153 [B,C]) with the total number of mice used, n, as follows: DMSO: 14, water: 16, OX02983: 10, OX03153: 12. The data were analysed by 2-way ANOVA (worms ~ treatment + batch + treatment * batch). There was no significant interaction effect (P = 0.14) or effect of batch (P = 0.47). We therefore combined the data from the three batches. […] We then conducted a post-hoc test using Tukey’s honest significant difference test.

WST-8 cytotoxicity assay = assay type: cell-based, mouse; details: mouse, CMT-93 rectal epithelial cells; resynthesised compound, WST-8 cytotoxicity; read-out: ResynCytotoxityWST-8(EC50uM)
Experimental: as §1

[4] = Neutral red cytotoxicity assay; assay type: cell-based, mouse; details: mouse, CMT-93 rectal epithelial cells; resynthesised compound, neutral red cytotoxicity; read-out: ResynCytotoxicityNeutralRed(EC50uM)
Experimental: as §2

[5] = tested on: un-embryonated T. muris eggs; assay: Embryonation assay; parameters: species or system Trichuris muris; details: resynthesised compound, activity on T. muris embryonation (Yes/No)
Experimental: To assess whether the dihydrobenzoxazepinone compounds could also prevent embryonation, 100 un-embryonated eggs were treated with OX02983 and OX03153 at 100μM for 56 days in the dark at room temperature, then examined under an Olympus SD-ILK microscope for signs of embryonation.

T. trichiura = details: cited from earlier work; for Cure rate for infection with T. trichiura: single doses of benzimidazoles
T. muris L1 larvae = tested on: T. muris L1 larvae; parameters: method as in PMID 23433224; details: cited from earlier work
L3/L4 and adult T. muris = tested on: L3/L4 and adult T. muris; parameters: method as in PMID 25261877; details: 200μg/ml (678μM); cited from earlier work
Ascaris = tested on: Ascaris; parameters: method as in PMID 18430913; details: annual treatment; cited from earlier work
T. muris [6] = details: associated with cuticular damage; cited from earlier work
T. muris L4 larvae = tested on: T. muris L4 larvae; parameters: method as in PMID 21889548; details: maximum concentration tested 200μg/ml or 229μM; cited from earlier work
T. muris [7] = details: associated with damage to nematode cuticle; cited from earlier work
[8] = Trichuris muris, resynthesised compound, adult T. muris paralysis, read-out: ResynActivityTmurisAdultParalysis(EC50uM)

1-(4-Methylbenzyl)-7-(pyridin-4-yl)-1,5-dihydrobenzo[e][1,4]oxazepin-2(3H)-one [OX03153]
EC50 (adult T. muris; values of Fig 5 shown for comparison, read-out: EC50 in adult Trichuris paralysis assay): 57 µM
EC50 [1]: > 100 µM
EC50 [2]: > 100 µM
Reduction of infectivity in vivo of treated embryonated eggs ([3]; eggs soaked 14 days at 100μM): not active

Cc1ccc(CN2C(=O)COCc3cc(-c4ccncc4)ccc32)cc1 [Compound 1]
EC50 (adult T. muris; [8]): 50 µM
COMBINED_SCREEN_ACTIVITY (adult T. muris): 8.615
PRIMARY_SCREEN_MINUS_LOG_FOLD_CHANGE_MOVEMENT (adult T. muris): 10.6993
SECONDARY_SCREEN_MINUS_LOG_FOLD_CHANGE_MOVEMENT (adult T. muris): 6.531
EC50 at 72 h (WST-8 cytotoxicity assay): > 100 µM
EC50 at 72 h [4]: > 100 µM
ResynActivityTmurisEggInfectivity [3]: Yes
ResynActivityTmurisEmbryonation [5]: No

O=C1COCc2cc(-c3cccnc3)ccc2N1CC1CCCCC1 [Compound 2]
EC50 (adult T. muris; [8]): 52 µM
COMBINED_SCREEN_ACTIVITY (adult T. muris): 11.5091
PRIMARY_SCREEN_MINUS_LOG_FOLD_CHANGE_MOVEMENT (adult T. muris): 10.3993
SECONDARY_SCREEN_MINUS_LOG_FOLD_CHANGE_MOVEMENT (adult T. muris): 12.6188
EC50 at 72 h (WST-8 cytotoxicity assay): > 100 µM
EC50 at 72 h [4]: > 100 µM

O=C1COCc2cc(-c3cccnc3)ccc2N1Cc1ccc(C(F)(F)F)cc1 [Compound 3]
EC50 (adult T. muris; [8]): 26 µM
COMBINED_SCREEN_ACTIVITY (adult T. muris): 11.4716
PRIMARY_SCREEN_MINUS_LOG_FOLD_CHANGE_MOVEMENT (adult T. muris): 10.3243
SECONDARY_SCREEN_MINUS_LOG_FOLD_CHANGE_MOVEMENT (adult T. muris): 12.6188
EC50 at 72 h (WST-8 cytotoxicity assay): > 100 µM
EC50 at 72 h [4]: 60 µM

Cc1ccc(CN2C(=O)COCc3cc(Br)ccc32)cc1 [Compound 4]
EC50 (adult T. muris; [8]): 35 µM
COMBINED_SCREEN_ACTIVITY (adult T. muris): 11.5841
PRIMARY_SCREEN_MINUS_LOG_FOLD_CHANGE_MOVEMENT (adult T. muris): 10.5493
SECONDARY_SCREEN_MINUS_LOG_FOLD_CHANGE_MOVEMENT (adult T. muris): 12.6188
EC50 at 72 h (WST-8 cytotoxicity assay): 63 µM
EC50 at 72 h [4]: 47 µM

Cc1ccc(CN2C(=O)COCc3cc(-c4cccnc4)ccc32)cc1 [Compound 5]
EC50 (adult T. muris; [8]): 57 µM
COMBINED_SCREEN_ACTIVITY (adult T. muris): 10.5493
PRIMARY_SCREEN_MINUS_LOG_FOLD_CHANGE_MOVEMENT (adult T. muris): 10.5493
EC50 at 72 h (WST-8 cytotoxicity assay): > 100 µM
EC50 at 72 h [4]: > 100 µM
ResynActivityTmurisEggInfectivity [3]: No
ResynActivityTmurisEmbryonation [5]: No

c1ccc([C@H]2CN3CCSC3=N2)cc1 [Levamisole, reference compound]
EC50 (adult T. muris; Trichuris muris, single adult worms, 24 hours incubation, automated motility assay, EC50 ± standard error, n = 5 (OX03144 n = 10), read-out: EC50, attenuation of ex vivo T. muris adult motility): 8 µM
Single-dose cure rate, trichiuriasis (T. trichiura; single dose, no reference given): 9%

COC(=O)Nc1nc2ccc(C(=O)c3ccccc3)cc2[nH]1 [Mebendazole]
Activity against T. muris L1 larvae (T. muris L1 larvae; maximum concentration tested 50μg/ml or 169μM): not active
Activity against L3/L4 and adult T. muris (L3/L4 and adult T. muris): active
Cure rate for infection with T. trichiura (T. trichiura): 36%
Cure rate, Ascaris (Ascaris): up to 95%

Cc1ccc(CN2C(=O)COCc3cc(-c4ccncc4)ccc32)cc1 [OX02983, 1-(4-Methylbenzyl)-7-(pyridin-4-yl)-1,5-dihydrobenzo[e][1,4]oxazepin-2(3H)-one]
EC50 (adult T. muris; Trichuris muris, values of Fig 5 shown for comparison, read-out: EC50 in adult Trichuris paralysis assay): 50 µM
EC50 ([1]; Mus musculus, CMT93): > 100 µM
EC50 ([2]; Mus musculus, CMT93): > 100 µM
Median worms establishing infection ([3]; eggs soaked 14 days at 100μM, 30 eggs by oral gavage, day 15 post-infection): 5.5 worms
Reduction of infectivity in vivo of treated embryonated eggs ([3]; eggs soaked 14 days at 100μM): ~54%

CCCSc1ccc2nc(NC(=O)OC)[nH]c2c1 [albendazole]
Cure rate for infection with T. trichiura (T. trichiura): 28%
Cure rate, Ascaris (Ascaris): up to 95%

COc1c2ccoc2cc2oc(=O)ccc12 [bergapten]
Activity against T. muris (T. muris [6]): activity against T. muris

C/C=C/c1cc(OC)c2c(c1)OCO2 [isomyristicin]
Activity against T. muris (T. muris [6]): activity against T. muris

O=c1cc(-c2ccc(O)c(O)c2)oc2cc(O)cc(O)c12 [luteolin]
Activity against T. muris (T. muris [6]): activity against T. muris

CN1CCCN=C1/C=C/c1cccc(O)c1.O=C(O)c1cc2ccccc2c(Cc2c(O)c(C(=O)O)cc3ccccc23)c1O [oxantel pamoate]
Single-dose cure rate, T. trichiura (T. trichiura; children, optimal dose, dose-ranging study): 60%

Ivermectin
Activity against T. muris L4 larvae (T. muris L4 larvae): not active
Activity against T. muris L1 larvae (T. muris L1 larvae; maximum concentration tested 50μg/ml or 57μM): not active

ficin
Effect on motility of T. muris parasites in vitro (T. muris [7]): rapidly reduce motility

B1: papain (protein, UniProt P00784 134-345, looked up)
Papain: IPEYVDWRQKGAVTPVKNQGSCGSCWAFSAVVTIEGIIKIRTGNLNEYSEQELLDCDRRSYGCNGGYPWSALQLVAQYGIHYRNTYPYEGVQRYCRSREKGPYAAKTDGVRQVQPYNEGALLYSIANQPVSVVLEAAGKDFQLYRGGIFVGPCGNKVDHAVAAVGYGPNYILIKNSWGTGWGENGYIRIKRGTGNSYGVCGLYTSSFYPVKN
notes: purified protease
Effect on motility of T. muris parasites in vitro (T. muris [7]): rapidly reduce motility
